{
  "source": "patent US7053052B2",
  "about": "“Therapies involving mutated heat shock transcription factor” (priority 1997, dated 2006)",
  "tested_on": "HepG2 cells",
  "assay": "Mortality from exposure to cyclophosphamide (LDH release, mortality)",
  "details": "20 mM, 24 hour exposure",
  "data": [
    {"smiles": "O=P1(N(CCCl)CCCl)NCCCO1", "note": "(stereo not shown) [cyclophosphamide, reference compound]", "values": [
      {"measurement": "mortality caused by cyclophosphamide", "value": 38, "unit": "%"}
    ]}
  ]
}
